From US20220347175A1, “PYRIDAZINONE DERIVATIVE” (Sumitomo Dainippon Pharma Co., Ltd., priority 2018, published 2022)

target: T1, human Nav1.1 (Homo sapiens, UniProt P35498); assay: Amplification of Nav1.1-derived voltage-dependent sodium current (Nav1.1 current), cell line stably expressing human Nav1.1, automated patch clamp; type: cell-based; conditions: 10 μmol/L compound (Test Result 5)
T1 construct: host or cells: HEK293
Experimental: Test 1: Evaluation of the Amplification of Nav1.1-Derived Voltage-Dependent Sodium Current (Nav1.1 Current) by Using a Cell Line Stably Expressing Human Nav1.1
(1) Preparation of Test Compounds
Test compounds were prepared by dissolving in DMSO at 200 times of the concentration at evaluation, and diluting the obtained solution to twice the concentration of evaluation with an extracellular fluid (135 mmol/L NaCl, 4 mmol/L KCl, 1 mmol/L MgCl2, 5 mmol/L CaCl2, 5 mmol/L Glucose, 10 mmol/L HEPES).
(2) Induction and Measurement of Nav1.1 Current
A HEK293 cell line stably expressing human Nav1.1 (cat #CYL3009, Millipore, USA, Human Embryonic Kidney 293) was purchased, and used in the present test. Nav1.1 current was induced by stimulating Ramp wave voltage. Detection of current which accompanied with the stimulation of voltage was carried out by a patch-clamp voltage-clamp method using HTS automated patch clamp system (SynchroPatch 768PE, Nanion Technologies GmbH, Germany). Only cells with more than 500 pA of voltage-dependent sodium channel current were used for the evaluation of the activity of compounds on Nav1.1 current because there was the possibility that currents derived from endogenous voltage-dependent sodium channels accounted for large proportion in cells with less than 500 pA of voltage-dependent sodium channel current which was induced by stimulating Ramp wave voltage.
(3) Pharmacologic Effect on Nav1.1 Current
The effect of test compounds on the amplification of Nav1.1-derived voltage-dependent sodium current was evaluated by using a cell line stably expressing human Nav1.1 and HTS automated patch clamp system. In other words, test compounds were added in an extracellular fluid containing 1% DMSO, and evaluated as a change of the peak value of Nav1.1 current and the area under the curve (AUC).
(4) Method for Pharmacological Evaluation
The Nav1.1 current amplification rates of test compounds were calculated by the following formula:
Nav1.1 current amplification rate (%)=100×[the peak value of Nav1.1 current or the area under the curve after the addition of test compounds]/[the peak value of Nav1.1 current or the area under the curve before the addition of test compounds]−100

SMILES	Nav1.1 current amplification rate (%)
CC1CC=C(c2ccc(=O)n(CC(=O)N3CCN(Cc4cccnc4)CC3)n2)CC1 (racemic) [Example 393]	19
CC1CCC(c2ccc(=O)n(CC(=O)Nc3ccc(C#N)cc3)n2)CC1 (stereo not shown) [Example 43]	174
CC1CC=C(c2ccc(=O)n(CC(=O)Nc3ccc(CO)nc3)n2)CC1 (racemic) [Example 376]	44
N#Cc1ccc(NC(=O)Cn2nc(N3CCCC(C(N)=O)C3)ccc2=O)cc1 (stereo not shown) [Example 8]	4
CC1CC=C(c2ccc(=O)n(CC(=O)NC3CN(c4ccccc4)C3)n2)CC1 (racemic) [Example 372]	52
CC1CC=C(c2ccc(=O)n(CC(=O)N3CC=C(c4ccccc4)C3)n2)CC1 (racemic) [Example 388]	37
CC1CC=C(c2ccc(=O)n(CC(=O)N3CC=C(c4ccccn4)CC3)n2)CC1 (stereo not shown) [Example 420]	39
CC1CC=C(c2ccc(=O)n(CC(=O)N3CCN(Cc4ccncc4)CC3)n2)CC1 (racemic) [Example 392]	53
O=C(Cn1nc(C2=CCCC2)ccc1=O)N1CCc2c(N3CCOCC3)cccc21 [Example 481]	128
CC1CC=C(c2ccc(=O)n(CC(=O)N3CCC(Oc4ccccc4)CC3)n2)CC1 (racemic) [Example 390]	50
N#Cc1ccc(NC(=O)Cn2nc(N3CCC(C(F)(F)F)CC3)ccc2=O)cc1 [Example 10]	124
N#Cc1ccc(NC(=O)Cn2nc(N3CCCCCCC3)ccc2=O)cc1 [Example 12]	241
CC1(C)CCN(c2ccc(=O)n(CC(=O)Nc3ccc(C#N)cc3)n2)C1 [Example 21]	130
CC1CC=C(c2ccc(=O)n(CC(=O)Nc3ccc(-c4cnn(C)c4)nc3)n2)CC1 (racemic) [Example 375]	173
CC1CCCN(c2ccc(=O)n(CC(=O)Nc3ccc(C#N)cc3)n2)C1 (stereo not shown) [Example 13]	76
CC1CCN(c2ccc(=O)n(CC(=O)Nc3ccc(C#N)cc3)n2)C1 (stereo not shown) [Example 19]	98
CC1CC=C(c2ccc(=O)n(CC(=O)N3CCc4c3ccnc4C3=CCNC3)n2)CC1 (racemic) [Example 281]	40
CC1CC=C(c2ccc(=O)n(CC(=O)Nc3ccnc(-c4cnn(C)c4)c3)n2)CC1 (racemic) [Example 379]	147
N#Cc1ccc(NC(=O)Cn2nc(N3CCC4(CCC4)CC3)ccc2=O)cc1 [Example 26]	364
CC1CC(C)CN(c2ccc(=O)n(CC(=O)Nc3ccc(C#N)cc3)n2)C1 (stereo not shown) [Example 14]	9

same assay, conditions: 10 μmol/L compound (Test Result 5); read-out: Nav1.1 current amplification rate (%)

SMILES	activation at 10 µM [%]
CC1CCN(c2ccc(=O)n(CC(=O)Nc3ccc(C#N)cc3)n2)CC1 [Example 1, N-(4-cyanophenyl)-2-[3-(4-methylpiperidin-1-yl)-6-oxopyridazin-1(6H)-yl]acetamide]	246
N#Cc1ccsc1-c1ccc(=O)n(CC(=O)Nc2ccn3ncnc3c2)n1 [Example 498]	24
CC1(C)C=C(c2ccc(=O)n(CC(=O)Nc3ccc(C#N)cc3)n2)CCO1 [Example 507]	10
N#Cc1ccc(NC(=O)Cn2nc(C3=CCC(F)(F)CC3)ccc2=O)cc1 [Example 37, N-(4-Cyanophenyl)-2-[3-(4,4-difluorocyclohex-1-en-1-yl)-6-oxopyridazin-1(6H)-yl]acetamide]	93

same assay, conditions: Concentration 1 μM (Test Result 7); read-out: Nav1.1 current amplification rate (%)

SMILES	activation at 1 µM [%]
CC1CC=C(c2ccc(=O)n(CC(=O)Nc3cccc(N4CCOCC4)c3)n2)CC1 (stereo not shown) [Example 549]	33
CC1CC=C(c2ccc(=O)n(CC(=O)Nc3ccn4ncnc4c3F)n2)CC1 (stereo not shown) [Example 552]	24
CC1CC=C(c2ccc(=O)n(CC(=O)Nc3ccc4cnccc4c3)n2)CC1 (stereo not shown) [Example 545]	223

same assay, conditions: Concentration 10 μM (Test Result 7); read-out: Nav1.1 current amplification rate (%)

SMILES	activation at 10 µM [%]
CN(c1ccc(=O)n(CC(=O)Nc2ccn3ncnc3c2)n1)C1CC1 [Example 558]	11

same assay, conditions: Concentration 50 μM (Test Result 7); read-out: Nav1.1 current amplification rate (%)

SMILES	activation at 50 µM [%]
CN(CC1(C)CC1)c1ccc(=O)n(CC(=O)Nc2ccc3cnccc3c2)n1 [Example 567]	281
CN(c1ccc(=O)n(CC(=O)Nc2ccc3cnccc3c2)n1)C1CC2(CC2)C1 [Example 569]	393

same assay, conditions: compound 50 μmol/L; HEK293 stably expressing human Nav1.1

SMILES	Nav1.1 current amplification rate (%)
Cc1cc2ncnn2cc1NC(=O)Cn1nc(C2=CCC(C)CC2)ccc1=O (racemic) [Example 351]	98
CC1CC=C(c2ccc(=O)n(CC(=O)N3CCc4c(C=C5CCNCC5)cccc43)n2)CC1 (racemic) [Example 293]	55
Cc1ccc(-c2ccc(=O)n(CC(=O)N3CCc4ccccc43)n2)cc1 [Example 157]	29
Cc1c(NC(=O)Cn2nc(C3=CCC(C)CC3)ccc2=O)ccc2ncnn12 (racemic) [Example 353]	32
CC1CC=C(c2ccc(=O)n(CC(=O)N3CCN(C4CCOCC4)CC3)n2)CC1 (stereo not shown) [Example 411]	18
Cc1cc2nc(NC(=O)Cn3nc(C4=CCC(C)CC4)ccc3=O)ccn2n1 (racemic) [Example 340]	41
CC1CC=C(c2ccc(=O)n(CC(=O)N3CCc4c(-c5cc[nH]n5)ccnc43)n2)CC1 (racemic) [Example 291]	212

same assay, conditions: compound 50 μmol/L; HEK293 stably expressing human Nav1.1; read-out: Nav1.1 current amplification rate (%)

SMILES	activation at 50 µM [%]
Cc1ccc(Oc2ccc(=O)n(CC(=O)Nc3ccn4ncnc4c3)n2)cc1 [Example 530]	9
CC1CCN(c2ccc(=O)n(CC(=O)Nc3ccc4c(c3)NCC4)n2)CC1 [Example 233]	47
CC1CC2CCC(C1)N2c1ccc(=O)n(CC(=O)Nc2ccn3ccnc3c2)n1 (stereo not shown) [Example 237]	27
CC1CC2CCC(C1)N2c1ccc(=O)n(CC(=O)N2CCc3c(N4CCOCC4)cccc32)n1 (stereo not shown) [Example 238]	128
Cc1cc(=O)n(CC(=O)Nc2ccn3cnnc3c2)nc1C1=CCC(C)(C)CC1 [Example 505]	255

same assay, conditions: concentration of each compound 1 μmol/L (Test Result 6)

SMILES	Nav1.1 current amplification rate (%)
CC1CC=C(c2ccc(=O)n(CC(=O)N3CCc4c(CNC5CCC5)cccc43)n2)CC1 (racemic) [Example 315]	19
O=C(Cn1nc(-c2cc(Cl)cs2)ccc1=O)Nc1ccn2ccnc2c1 [Example 467]	80
CC1CC=C(c2ccc(=O)n(CC(=O)Nc3ccc4nccn4c3)n2)CC1 (racemic) [Example 343]	44
Cc1cc(NC(=O)Cn2nc(C3=CCC(C)CC3)ccc2=O)cc(C)n1 (racemic) [Example 364]	25
CC1CC=C(c2ccc(=O)n(CC(=O)Nc3ccc4c(cnn4C)c3)n2)CC1 (racemic) [Example 336]	68
CC1CC=C(c2ccc(=O)n(CC(=O)N3CCc4c3ccnc4C3=CCN(C(=O)OC(C)(C)C)C3)n2)CC1 (racemic) [Example 280]	10
CC1CC=C(c2ccc(=O)n(CC(=O)N3CCc4c3ccc(F)c4-c3ccnnc3)n2)CC1 (racemic) [Example 295]	95
CC1CC=C(c2ccc(=O)n(CC(=O)Nc3ccc4cncn4c3)n2)CC1 (racemic) [Example 344]	69
CC1CC=C(c2ccc(=O)n(CC(=O)Nc3ccc4ncnn4n3)n2)CC1 (racemic) [Example 350]	31
CC1CC=C(c2ccc(=O)n(CC(=O)N3CCc4c3ccnc4C3=CCOC3)n2)CC1 (racemic) [Example 284]	91
CC(=O)N1CC=C(c2nccc3c2CCN3C(=O)Cn2nc(C3=CCC(C)CC3)ccc2=O)C1 (racemic) [Example 310]	87
CC1CC=C(c2ccc(=O)n(CC(=O)N3CCc4cc(OCC(C)(C)O)ccc43)n2)CC1 (racemic) [Example 320]	10
COC1CCN(c2nccc3c2CCN3C(=O)Cn2nc(C3=CCC(C)CC3)ccc2=O)CC1 (racemic) [Example 309]	71

same assay, conditions: concentration of each compound 1 μmol/L (Test Result 6); read-out: Nav1.1 current amplification rate (%)

SMILES	activation at 1 µM [%]
COc1cc(=O)n(CC(=O)Nc2ccn3ncnc3c2)nc1C1=CCC(C)(C)CC1 [Example 499]	50
O=C(Cn1nc(N2CCC3(CCC3)C2)ccc1=O)Nc1ccn2ncnc2c1 [Example 230]	33
COc1cc(=O)n(CC(=O)Nc2ccc3oc(N(C)C)nc3c2)nc1C1=CCC(C)(C)CC1 [Example 500]	14
